Results from patent US8987212B2, “Oleanoyl peptide composition and method of treating skin aging” (priority 2007, dated 2015).
Where a SMILES comes first, the peptide text is derived from it. The star is where a group is joined. X1 = CC1(C)CC[C@]2(C(=O)*)CC[C@]3(C)C(=CCC4[C@@]5(C)CC[C@H](O)C(C)(C)C5CC[C@]43C)C2C1

Key:
TNF α = TNF α inhibition in LPS-stimulated human whole blood (ELISA); format: cell-based; conditions: human whole blood, LPS 1 ng/mL
From the text: For TNF α inhibitory study, human whole blood is used. In whole blood assay, monocytes appear to be the main source of TNF-α on lipopolysaccharide (LPS) stimulation. Monocyte and macrophages are a major source of TNF-α in addition to other cell types like eosinophils, mast cells, peripheral lymphocytes and granulocytes. The activation of inflammatory cells is influenced by the intracellular levels of c-AMP which are regulated by the phosphodiesterase isoenzyme. […] After stimulation, the assay employs the quantitative sandwich enzyme immunoassay technique. A monoclonal antibody specific for TNF-α has been pre-coated onto a microplate. TNF-α present in the sample is bound by the immobilized antibody. After washing away any unbound substances, an enzyme-linked polyclonal antibody specific for TNF-α is added. Following a wash to remove any unbound antibody-enzyme reagent, a substrate solution is added to the wells and colour develops in proportion to the amount of TNF-α bound in the initial step. The colour development is stopped and the intensity of the colour is directly proportional to the TNF-α content.
Heparinized blood from healthy donors was diluted 1:3 in RPMI 1640 culture medium containing 10% FBS. […] 0.1% DMSO was used as vehicle for water insoluble samples. After pre-incubation, the whole blood cells were stimulated by 1 ng/mL LPS for the release of TNF α from the macrophages by incubating for 5 hr at 37° C. in an incubator with 5% COP. The samples were then centrifuged at 3000 g for 3 minutes at 4° C. and the supernatant was assayed for TNF α content by using the TNF α Elisa kit. 200 μL of supernatant from all the tubes was transferred into microtiter plate in respective wells (Pre-coated mouse monoclonal antibody microplate) followed by the addition of 50 μL of assay diluents in all the wells. After incubation for 2 hr at room temperature, the wells were washed thoroughly with wash buffer provided and then 200 μL of conjugate was added to each well. The plate was incubated for 2 hr at room temperature. After washing again, 200 μL of substrate solution was added to each well and incubated for 20 minutes at room temperature. 50 μL of Stop Solution to each well which will cause the colour change in the wells from blue to yellow was added. The optical density was read at 450 nm which is directly proportional to TNF α content and the percentage of inhibition of TNF α content on treatment with sample was calculated with respect to that of the untreated cells.
T=absorbance due to TNF α in the presence of inhibitor

Prostaglandin E2 (PGE2) = assay: Extracellular PGE2 from LPS-challenged human neutrophils; format: cell-based; conditions: for % activity PGE2 expression against LPS control: ↓ = inhibition
Experimental: Experimental observations were made in human neutrophil that were challenged with LPS. […] Rolipram at 100 μg/ml dose level was used as a standard drug to observe the authenticity and reproducibility of the experimental design.
The Oleanoyl peptide was also screened for NO and PGE2 expression.

human skin = assay: Effect of Oleanoyl peptide cream on human facial skin; format: in vivo; conditions: cream with Oleanoyl peptide (0.01%), twice daily, three weeks, photographs
Experimental: To study the potential effect of Oleanoyl peptide on human skin, candidates were selected in-house whose age ranging from about 30 to 60 with moderate to severe signs of aging. A topical composition comprising Oleanoyl peptide (0.01%) was prepared as a cream for application on the skin.
The cream containing Oleanoyl peptide was applied on the affected areas of facial skin of the candidates twice daily for a continuous period of three weeks. Photographs of the candidates were taken before and after three weeks of application of the cream.

`C[C@@H](O)[C@H](NC(=O)[C@H](CCCCN)NC(=O)[C@]12CCC(C)(C)CC1C1=CCC3[C@@]4(C)CC[C@H](O)C(C)(C)C4CC[C@@]3(C)[C@]1(C)CC2)C(=O)N[C@H](C(=O)N[C@@H](CCCCN)C(=O)N[C@@H](CO)C(=O)O)[C@@H](C)O` (stereo partly drawn) [Oleanoyl peptide, Oleanoyl-Lys-Thr-Thr-Lys-Ser-OH] (X1-KTTKS-OH) was tested. Which “TNF α inhibition (IC50 μg/ml)” value (TNF α) did it give?
Its value is 21 µg/mL.

And the “Concentration of PGE2 produced (pg/ml) Mean ± S.E.” value (“Concentration of PGE2 produced” below) (Prostaglandin E2 (PGE2); test sample 0.125 μg/ml)?
The value was 573.82 ± 6.08 pg/mL.

What about the “Concentration of PGE2 produced” value (Prostaglandin E2 (PGE2); test sample 0.25 μg/ml) of the same molecule?
Its value is 501.64 ± 7.56 pg/mL.

And the “Concentration of PGE2 produced” value (Prostaglandin E2 (PGE2); test sample 0.5 μg/ml)?
Its value is 468.31 ± 6.41 pg/mL.

And the “Concentration of PGE2 produced” value (Prostaglandin E2 (PGE2); test sample 1 μg/ml)?
Its value is 419.53 ± 5.07 pg/mL.

What about the “Concentration of PGE2 produced” value (Prostaglandin E2 (PGE2); test sample 2 μg/ml) of the same molecule?
Its value is 384.44 ± 8.02 pg/mL.

What about the “Concentration of PGE2 produced” value (Prostaglandin E2 (PGE2); test sample 4 μg/ml) of the same molecule?
Its value is 395.81 ± 4.68 pg/mL.

What about the “% activity PGE2 expression against LPS control” value (shortened to “% activity PGE2 expression”) (Prostaglandin E2 (PGE2); test sample 0.125 μg/ml) of the same molecule?
Its value is 25.37↓ %.

And the “% activity PGE2 expression” value (Prostaglandin E2 (PGE2); test sample 0.25 μg/ml)?
The value was 34.76↓ %.

What about the “% activity PGE2 expression” value (Prostaglandin E2 (PGE2); test sample 0.5 μg/ml) of the same molecule?
The value was 39.09↓ %.

And the “% activity PGE2 expression” value (Prostaglandin E2 (PGE2); test sample 1 μg/ml)?
Its value is 45.44↓ %.

What about the “% activity PGE2 expression” value (Prostaglandin E2 (PGE2); test sample 2 μg/ml) of the same molecule?
Its value is 50.00%.

And the “% activity PGE2 expression” value (Prostaglandin E2 (PGE2); test sample 2 μg/ml, listed as OP)?
The value was 50.00↓ %.

What about the “% activity PGE2 expression” value (Prostaglandin E2 (PGE2); test sample 4 μg/ml) of the same molecule?
The value was 48.52↓ %.

What about the “effect on dark circles under the eye” value (human skin) of the same molecule?
Its value is “reduction of dark circles under the eye”.

And the effect on hyperpigmentation (human skin)?
Its effect on hyperpigmentation is “reduction in hyperpigmentation”.

What about the “effect on skin thickness” value (human skin) of the same molecule?
The value was “improvement in skin thickness”.

And the effect on wrinkles (human skin)?
The effect on wrinkles was “wrinkles are softened”.
